# Source: ChEMBL document CHEMBL4038285, “Synthesis, molecular docking, antimycobacterial and antimicrobial evaluation of new pyrrolo[3,2-c]pyridine Mannich bases” (Eur J Med Chem, 2017)
# Active and inactive are the calls of the source. The rule behind the calls is not given here.
# Experiments:
# [1] = test system: Mycobacterium tuberculosis; assay: Antimycobacterial activity against Mycobacterium tuberculosis H37Rv ATCC 27294 after 7 days by microplate alamar blue assay; type: functional; details: H37Rv ATCC 27294, 168 h
# Staphylococcus aureus [2] = assay: Antibacterial activity against Staphylococcus aureus NCIM 5345 assessed as diameter of inhibition zone measured after 20 hrs by agar well diffusion method; type: functional
# Streptococcus mutans [3] = assay: Antibacterial activity against Streptococcus mutans MTCC 890 after 24 hrs by broth microdilution method; type: functional; details: MTCC 890, 24 h
# Klebsiella pneumoniae = assay: Antibacterial activity against Klebsiella pneumoniae PTCC 1053 assessed as diameter of inhibition zone measured after 20 hrs by agar well diffusion method; type: functional
# Pseudomonas sp. = assay: Antibacterial activity against Pseudomonas sp. NCIM 2872 assessed as diameter of inhibition zone measured after 20 hrs by agar well diffusion method; type: functional
# Clostridium sporogenes [4] = assay: Antibacterial activity against Clostridium sporogenes NICM 2559 assessed as diameter of inhibition zone measured after 20 hrs by agar well diffusion method; type: functional
# Pseudomonas aeruginosa = assay: Antibacterial activity against Pseudomonas aeruginosa MTCC 4727 assessed as diameter of inhibition zone measured after 20 hrs by agar well diffusion method; type: functional
# Clostridium sporogenes [5] = assay: Antibacterial activity against Clostridium sporogenes NICM 2559 after 24 hrs by broth microdilution method; type: functional; details: NICM 2559, 24 h
# Streptococcus mutans [6] = assay: Antibacterial activity against Streptococcus mutans MTCC 890 assessed as diameter of inhibition zone measured after 20 hrs by agar well diffusion method; type: functional
# Bacillus flexus [7] = assay: Antibacterial activity against Bacillus flexus MTCC 2909 after 24 hrs by broth microdilution method; type: functional; details: Priestia flexa, MTCC 2909, 24 h
# Bacillus flexus [8] = assay: Antibacterial activity against Bacillus flexus MTCC 2909 assessed as diameter of inhibition zone measured after 20 hrs by agar well diffusion method; type: functional, Priestia flexa
# Escherichia coli = assay: Antibacterial activity against Escherichia coli NCIM 2931 assessed as diameter of inhibition zone measured after 20 hrs by agar well diffusion method; type: functional
# Aspergillus terreus = assay: Antifungal activity against Aspergillus terreus MTCC 1782 assessed as diameter of inhibition zone after 4 days by agar well diffusion method; type: functional
# Scopulariopsis sp = assay: Antifungal activity against Scopulariopsis sp. MTCC 3553 assessed as diameter of inhibition zone after 4 days by agar well diffusion method; type: functional
# Staphylococcus aureus [9] = assay: Antibacterial activity against Staphylococcus aureus NCIM 5345 after 24 hrs by broth microdilution method; type: functional; details: NCIM 5345, 24 h
# [10] = Growth inhibition of human HEK293T cells at 50 ug/ml after 72 hrs by MTT assay relative to control; type: cell-based, HEK-293T; details: read-out: GI
# [11] = Selectivity index, ratio of IC50 for human HEK293T cells to MIC for Mycobacterium tuberculosis H37Rv ATCC 27294; type: toxicity; details: read-out: Selectivity Index
# HEK-293T = assay: Growth inhibition of human HEK293T cells after 72 hrs by MTT assay; type: cell-based
Compound,MIC [1] [µg/mL],diameter of the inhibition zone (DIZ) (Staphylococcus aureus [2]),MIC (Streptococcus mutans [3]) [µg/mL],diameter of the inhibition zone (DIZ) (Klebsiella pneumoniae),diameter of the inhibition zone (DIZ) (Pseudomonas sp.),diameter of the inhibition zone (DIZ) (Clostridium sporogenes [4]),diameter of the inhibition zone (DIZ) (Pseudomonas aeruginosa),MIC (Clostridium sporogenes [5]) [µg/mL],diameter of the inhibition zone (DIZ) (Streptococcus mutans [6]),MIC (Bacillus flexus [7]) [µg/mL],diameter of the inhibition zone (DIZ) (Bacillus flexus [8]) [mm],diameter of the inhibition zone (DIZ) (Escherichia coli),diameter of the inhibition zone (DIZ) (Aspergillus terreus),diameter of the inhibition zone (DIZ) (Scopulariopsis sp),MIC (Staphylococcus aureus [9]) [µg/mL],also measured
NNC(=O)c1ccncc1 [ISONIAZID],0.36,,,,,,,,,,,,,,,
CN[C@@H]1[C@H](O[C@H]2[C@H](O[C@H]3[C@H](O)[C@@H](O)[C@H](N=C(N)N)[C@@H](O)[C@@H]3N=C(N)N)O[C@@H](C)[C@]2(O)C=O)O[C@@H](CO)[C@H](O)[C@H]1O [STREPTOMYCIN],,32 mm,0.5,32 mm,32 mm,32 mm,32 mm,1,32 mm,1.5,32,32 mm,inactive,inactive,2,
NYSTATIN,,inactive,,inactive,inactive,inactive,inactive,,inactive,,,inactive,,,,diameter of the inhibition zone (DIZ) (Bacillus flexus [8]; Priestia flexa): inactive; inhibition zone (IZ) (Aspergillus terreus): 32 mm; inhibition zone (IZ) (Scopulariopsis sp): 32 mm
CO[C@H]1/C=C/O[C@@]2(C)Oc3c(C)c(O)c4c(O)c(c(/C=N/N5CCN(C)CC5)c(O)c4c3C2=O)NC(=O)/C(C)=C\C=C\[C@H](C)[C@H](O)[C@@H](C)[C@@H](O)[C@@H](C)[C@H](OC(C)=O)[C@@H]1C [RIFAMPIN],0.02,,,,,,,,,,,,,,,
CC[C@@H](CO)NCCN[C@@H](CC)CO [ETHAMBUTOL],3.12,,,,,,,,,,,,,,,
OCCN1CCN(Cc2c(-c3ccccc3)[nH]c3ccnc(Cl)c23)CC1,> 25,10 mm,> 50,inactive,inactive,10 mm,inactive,> 50,10 mm,> 50,10,inactive,inactive,inactive,> 50,
Clc1nccc2[nH]c(-c3ccccc3)c(CN3CCOCC3)c12,> 25,10 mm,> 50,inactive,inactive,10 mm,inactive,> 50,10 mm,> 50,10,inactive,inactive,inactive,> 50,
Clc1nccc2[nH]c(CC3CCCCC3)c(CN3CCOCC3)c12,25,20 mm,30,inactive,inactive,20 mm,inactive,40,20 mm,40,20,inactive,inactive,inactive,35,"inhibition at 72 h, 50 ug/ml [10]: 21.2%; selectivity ratio [11]: 1 to 2; IC50 (HEK-293T): > 50 µg/mL"
CN(CCc1ccccc1)Cc1c(CC2CCCCC2)[nH]c2ccnc(Cl)c12,6.25,32 mm,10,inactive,inactive,32 mm,inactive,9,32 mm,8,32,inactive,inactive,inactive,10,"inhibition at 72 h, 50 ug/ml [10]: 19.1%; selectivity ratio [11]: > 16; IC50 (HEK-293T): > 50 µg/mL"
